From US7638535B2, “4-(aminomethyl)-piperidine benzamides as 5HT4-antagonists” (Janssen Pharmaceutica N.V., priority 2003, dated 2009)

What was measured:
h5-HT4b = molecular target: T1, h5-HT4b (Homo sapiens, UniProt Q13639); experiment: 5HT4 antagonism: [3H]GR113808 binding to membranes of h5-HT4b-HEK 293 clone 9 cells; conditions: displacement of [3H]GR113808 0.1 nM, h5-HT4b-HEK 293 membranes, 30 min at 25° C.; read-out: pIC50 (5HT4 antagonistic data) (converted)
T1 construct: expressed in transfected cells; host or cells: HEK 293 (clone 9), membrane preparation
In short: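 Membranes from h5-HT4b-HEK 293 clone 9 cells were incubated with [3H]GR113808 (0.1 nM as added) in 50 mM HEPES-NaOH pH 7.4 for 30 min at 25 °C. Non-specific binding was defined with a 5-HT4 agonist. Bound radioligand was separated by filtration over PEI-soaked GF/B filters.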

[1] = Metabolic stability: % metabolism after 60 minutes incubation with active liver microsomes; type: in vitro ADME; conditions: compound 5 μM, microsomes 1 mg/ml, NADPH-generating system, 60 minutes at 37 degrees Celsius
Description: Sub-cellular tissue preparations were made according to Gorrod et al. (Xenobiotica 5:453-462, 1975) by centrifugal separation after mechanical homogenization of tissue. Liver tissue was rinsed in ice-cold 0.1 M Tris-HCl (pH 7.4) buffer to wash excess blood. Tissue was then blotted dry, weighed and chopped coarsely using surgical scissors. The tissue pieces were homogenized in 3 volumes of ice-cold 0.1 M phosphate buffer (pH 7.4).
Tissue homogenates were centrifuged at 9000×g for 20 minutes at 4° C. The resulting supernatant was stored at −80° C. and is designated ‘S9’.
The S9 fraction can be further centrifuged at 100.000×g for 60 minutes (4° C.). The resulting supernatant was carefully aspirated, aliquoted and designated ‘cytosol’. The pellet was re-suspended in 0.1 M phosphate buffer (pH 7.4) in a final volume of 1 ml per 0.5 g original tissue weight and designated ‘microsomes’.
All sub-cellular fractions were aliquoted, immediately frozen in liquid nitrogen and stored at −80° C. until use.
For the samples to be tested, the incubation mixture contained PBS (0.1M), compound (5 μM), microsomes (1 mg/ml) and a NADPH-generating system (0.8 mM glucose-6-phosphate, 0.8 mM magnesium chloride and 0.8 Units of glucose-6-phosphate dehydrogenase). Control samples contained the same material but the microsomes were replaced by heat inactivated (10 minutes at 95 degrees Celsius) microsomes. Recovery of the compounds in the control samples was always 100%.
The mixtures were preincubated for 5 minutes at 37 degrees Celsius. The reaction was started at time point zero (t=0) by addition of 0.8 mM NADP and the samples were incubated for 60 minutes (t=60). The reaction was terminated by the addition of 2 volumes of DMSO. Then the samples were centrifuged for 10 minutes at 900×g and the supernatants were stored at room temperature for no longer as 24 hours before analysis. All incubations were performed in duplo. Analysis of the supernatants was performed with LC-MS analysis. Elution of the samples was performed on a Xterra MS C18 (50×4.6 mm, 5 μm, Waters, US). An Alliance 2790 (Supplier: Waters, US) HPLC system was used. Elution was with buffer A (25 mM ammoniumacetate (pH 5.2) in H2O/acetonitrile (95/5)), solvent B being acetonitrile and solvent C methanol at a flow rate of 2.4 ml/min. The gradient employed was increasing the organic phase concentration from 0% over 50% B and 50% C in 5 min up to 100% B in 1 minute in a linear fashion and organic phase concentration was kept stationary for an additional 1.5 minutes. Total injection volume of the samples was 25 μl.
A Quatro triple quadrupole mass spectrometer fitted with and ESP source was used as detector. The source and the desolvation temperature were set at 120 and 350° C. respectively and nitrogen was used as nebuliser and drying gas. Data were acquired in positive scan mode (single ion reaction). Cone voltage was set at 10 V and the dwell time was 1 second.
Metabolic stability was expressed as % metabolism of the compound after 60 minutes (equation given as example) of incubation in the presence of active microsomes (E(act))

T1 sequence (Q13639 whole entry): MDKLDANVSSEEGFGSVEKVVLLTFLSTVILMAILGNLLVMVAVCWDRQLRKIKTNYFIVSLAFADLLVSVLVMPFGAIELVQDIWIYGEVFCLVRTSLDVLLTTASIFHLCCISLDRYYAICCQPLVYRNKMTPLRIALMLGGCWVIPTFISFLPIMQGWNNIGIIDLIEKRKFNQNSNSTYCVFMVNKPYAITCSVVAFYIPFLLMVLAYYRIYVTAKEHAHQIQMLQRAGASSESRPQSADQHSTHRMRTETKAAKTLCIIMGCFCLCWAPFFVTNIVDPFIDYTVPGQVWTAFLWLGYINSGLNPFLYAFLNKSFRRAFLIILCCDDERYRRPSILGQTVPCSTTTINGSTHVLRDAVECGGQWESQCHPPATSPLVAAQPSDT

Structure (SMILES)	melting point [°C]	IC50 (h5-HT4b) [nM]	% metabolised compound (compounds of present invention) [1] [%]
CC(=O)CCCN1CC[C@@H](CNC(=O)c2cc(N)c(Cl)c3c2OCCO3)[C@H](O)C1 [compound 44]	130	22.9	–
CS(=O)(=O)NCCN1CC[C@@H](CNC(=O)c2cc(N)c(Cl)c3c2OCCO3)[C@H](O)C1 [compound 63]	180	69.2	–
Cc1nccnc1NCCN1CC[C@@H](CNC(=O)c2cc(N)c(Cl)c3c2OCCO3)[C@H](O)C1 [compound 68]	100	30.2	–
CCCCN1CC[C@@H](CNC(=O)c2cc(N)cc3c2OCCO3)[C@H](O)C1 [compound 107]	> 160	5.5	–
CNc1cc2c(c(C(=O)NC[C@@H]3CCN(CCCOC)C[C@H]3O)c1)OCCCO2 [compound 113]	126	126	–

Other lines, results leading:

melting point [°C]	IC50 (h5-HT4b) [nM]	% metabolised compound (compounds of present invention) [1] [%]	Structure (SMILES)
134	1.69	–	Cc1cc2c(c(C(=O)NC[C@@H]3CCN(CCCCNS(C)(=O)=O)C[C@H]3O)c1)OCCCO2 [compound 193]
108	0.955	15	COCCCN1CC[C@@H](CNC(=O)c2cc(C)cc3c2OCCCO3)[C@H](O)C1 [compound 200]
> 112	0.851	–	Cc1cc2c(c(C(=O)NC[C@@H]3CCN(CCCC(=O)N4CCN(C)CC4)C[C@H]3O)c1)OCCCO2 [compound 238]
